{
  "source": "paper PMC12459314",
  "about": "“Subcutaneous administration of a novel TRPM8 antagonist reverses cold hypersensitivity while attenuating the drop in core body temperature” (British journal of pharmacology, 2024)",
  "key": {"[1]": {"target": "T1, κ opioid receptor (OPRK1) (Homo sapiens, UniProt P41145)", "T1 construct": "purchased Eurofins DiscoverX (SAFETYscan; gpcrSCAN; HitHunter cAMP XS+)", "T1 sequence (P41145 whole entry)": "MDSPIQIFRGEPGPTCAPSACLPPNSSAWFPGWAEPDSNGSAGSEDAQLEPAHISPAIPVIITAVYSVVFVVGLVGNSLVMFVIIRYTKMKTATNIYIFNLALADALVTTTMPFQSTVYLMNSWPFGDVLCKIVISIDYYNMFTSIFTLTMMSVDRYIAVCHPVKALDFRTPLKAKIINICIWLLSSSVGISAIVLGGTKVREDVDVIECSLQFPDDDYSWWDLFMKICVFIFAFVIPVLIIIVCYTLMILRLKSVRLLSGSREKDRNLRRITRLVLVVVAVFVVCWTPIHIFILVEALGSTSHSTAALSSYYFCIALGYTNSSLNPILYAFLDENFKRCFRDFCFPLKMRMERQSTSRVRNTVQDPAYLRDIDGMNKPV", "test": "Eurofins DiscoverX opioid receptor assays (SAFETYscan; HitHunter cAMP), OPRK1", "assay_type": "cell-based", "protocol": "(§1) Assessment of the safety profile of VBJ103 across 78 assays using recombinant human targets was performed with the SAFETYscan E/IC50 ELECT service by Eurofins DiscoverX (San Diego, CA, USA). […] The assays were performed utilizing PathHunter enzyme fragment complementation (EFC) technology, FLIPR®-based cellular screening assays, KINOMEscan kinase binding assays and a variety of enzymatic assays. Further potential functional activity at opioid receptors was performed in the gpcrSCAN service by Eurofins DiscoverX. Hit Hunter® cAMP assays were carried out using Enzyme Fragment Complementation (EFC) with β-galactosidase (β-Gal) as the functional reporter.\n(§2) Assessment of potential positive allosteric modulator (PAM) activity at μ, δ and κ opioid receptors was performed with the DiscoverX HitHunter cAMP XS+ assay by Eurofins DiscoverX (San Diego, CA, USA)."}, "[2]": {"target": "T2, μ opioid receptor (OPRM1) (Homo sapiens, UniProt P35372)", "T2 construct": "purchased Eurofins DiscoverX (SAFETYscan; gpcrSCAN; HitHunter cAMP XS+)", "T2 sequence (P35372 whole entry)": "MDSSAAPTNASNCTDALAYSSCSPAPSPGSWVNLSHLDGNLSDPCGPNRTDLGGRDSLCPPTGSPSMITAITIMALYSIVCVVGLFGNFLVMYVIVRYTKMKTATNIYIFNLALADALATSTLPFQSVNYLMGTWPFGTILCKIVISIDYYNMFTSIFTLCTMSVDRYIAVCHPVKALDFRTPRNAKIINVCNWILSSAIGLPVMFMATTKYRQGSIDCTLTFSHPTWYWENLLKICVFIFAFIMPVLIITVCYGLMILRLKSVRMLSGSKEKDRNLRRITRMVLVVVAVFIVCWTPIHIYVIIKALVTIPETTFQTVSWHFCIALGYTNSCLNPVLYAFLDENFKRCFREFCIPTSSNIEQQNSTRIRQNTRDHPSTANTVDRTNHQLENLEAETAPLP", "test": "Eurofins DiscoverX opioid receptor assays (SAFETYscan; HitHunter cAMP), OPRM1", "assay_type": "cell-based", "protocol": "as §1, §2"}, "[3]": {"target": "T3, δ opioid receptor (OPRD1) (Homo sapiens, UniProt P41143)", "T3 construct": "purchased Eurofins DiscoverX (SAFETYscan; gpcrSCAN; HitHunter cAMP XS+)", "T3 sequence (P41143 whole entry)": "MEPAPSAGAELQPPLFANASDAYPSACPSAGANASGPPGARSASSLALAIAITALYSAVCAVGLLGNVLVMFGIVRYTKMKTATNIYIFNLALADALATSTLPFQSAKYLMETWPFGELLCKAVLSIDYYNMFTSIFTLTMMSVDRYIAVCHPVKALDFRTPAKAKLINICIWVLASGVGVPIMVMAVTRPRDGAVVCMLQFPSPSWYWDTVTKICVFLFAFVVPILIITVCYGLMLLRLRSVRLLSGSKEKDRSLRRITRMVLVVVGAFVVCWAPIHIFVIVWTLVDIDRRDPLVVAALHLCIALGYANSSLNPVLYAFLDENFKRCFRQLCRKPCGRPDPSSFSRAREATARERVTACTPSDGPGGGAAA", "test": "Eurofins DiscoverX opioid receptor assays (SAFETYscan; HitHunter cAMP), OPRD1", "assay_type": "cell-based", "protocol": "as §1, §2"}, "[4]": {"target": "T4, dopamine transporter (DAT) (Homo sapiens, UniProt Q01959)", "T4 construct": "purchased Eurofins DiscoverX (SAFETYscan E/IC50 ELECT service)", "T4 sequence (Q01959 whole entry)": "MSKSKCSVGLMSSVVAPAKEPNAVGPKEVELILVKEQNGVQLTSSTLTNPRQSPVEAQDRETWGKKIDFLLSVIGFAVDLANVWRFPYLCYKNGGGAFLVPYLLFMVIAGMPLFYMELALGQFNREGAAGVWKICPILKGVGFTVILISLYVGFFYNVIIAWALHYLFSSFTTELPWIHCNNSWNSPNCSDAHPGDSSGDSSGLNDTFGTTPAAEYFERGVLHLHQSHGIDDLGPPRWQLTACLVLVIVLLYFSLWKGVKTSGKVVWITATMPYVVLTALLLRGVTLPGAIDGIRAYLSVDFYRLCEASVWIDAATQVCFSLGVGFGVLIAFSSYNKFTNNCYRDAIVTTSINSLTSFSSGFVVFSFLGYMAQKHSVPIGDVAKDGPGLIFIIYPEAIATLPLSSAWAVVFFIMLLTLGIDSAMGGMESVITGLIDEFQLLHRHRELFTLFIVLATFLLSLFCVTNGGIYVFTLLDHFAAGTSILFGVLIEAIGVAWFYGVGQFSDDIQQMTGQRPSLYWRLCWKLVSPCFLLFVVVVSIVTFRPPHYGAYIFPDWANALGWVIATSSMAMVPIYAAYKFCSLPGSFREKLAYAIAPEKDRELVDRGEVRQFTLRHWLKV", "test": "SAFETYscan E/IC50 ELECT, dopamine transporter antagonist assay", "assay_type": "cell-based", "details": "single experiment", "protocol": "as §1"}, "[5]": {"test": "Brain levels in vivo by UPLC-MS/MS", "design": "species or system rat", "protocol": "VBJ103 levels in the brain were determined by PsychoGenics Inc (Paramus, USA). VBJ103 and vehicle solutions were administered subcutaneously at a dose of 100 mg·kg^−1. Male and female Sprague–Dawley rats (200–250 g) supplied by Envigo were used in this study and housed three per cage (26 cm × 47.6 cm × 20.3 cm) upon arrival. Rats with jugular vein catheters (JVC) were housed two per cage with a divider to prevent damage to catheters. Cages contained BedO’-Cob® bedding with Nylabones® for enrichment. Rats were acclimatised for 2 to 7 days prior to commencing studies. All rats were examined, handled and weighed prior to initiation of the study to assure adequate health and suitability. During the course of the study, 12/12 light/dark cycles were maintained with lights on at 6 AM. The room temperature was maintained between 20°C and 23°C with a relative humidity maintained around 50%. Chow (Lab diet 5001, LabDiet, St. Louis, MO, USA) and water were provided ad libitum throughout the acclimatisation period and during the treatment and collection period. Rats were randomly assigned to the experimental groups.\nUPLC-MS/MS analysis was performed on a ODS 3 Inertsil C18 column 2.1 × 50 mm, 2 μm (GL Sciences 5020–84652), using a gradient of 40:60 solvent A (H2O + 0.5% formic acid):solvent B (ACN + 1.0% formic acid) → 0:100 for 2 min at a flow rate of 0.5 ml·min^−1. The following parameters were used: injection volume 5 μl, column temperature 40°C, pre-column temperature 40°C and sample temperature 4°C. Eluted peaks were monitored with a Waters Xevo TQ-XS coupled to an Acquity i-Class Plus UPLC setup (range: 334.19 Da to 155.04 and 198.08 Da). RT = 1.15 min. The range of quantitation was 0.25 to 10,000 ng·ml^−1 for brain. The software Masslynx V4.2 SCN1012 was used for instrument control and data acquisition.\nBrain collection was performed via live decapitation. Whole brains were collected at 1 h following administration and upon completion of serial collections (24 h). Resultant brains were rinsed in saline and frozen immediately on a cold plate (−77°C) before placement into a pre-weighed specimen container. Brain weights were then determined prior to placement of the samples on dry ice followed by relocation to a −80°C freezer pending bioanalysis.\nPre-weighed whole brain tissue was homogenized (Omni Prep multichannel tissue homogenizer) using a 1:1 MilliQ water (containing 0.2% acetic acid)/acetonitrile mixture which was added to the brain using a 4:1 solution to brain ratio. Subsequently, the homogenate was centrifuged for 10 min at 4°C at a speed of 2688 g. Three 25-μl aliquots out of the top layer of the centrifuged homogenate were crashed into three QuanRecovery wells, each containing 150 μl of acetonitrile/internal standard. The crash was then centrifuged for 20 min at 2688 g while maintaining a temperature of 4°C. Mixing of the resultant supernatant with water (3:2) provided samples for triplicate analysis. Brain standards, quality controls (QCs) and blanks were prepared using a male Sprague–Dawley brain acquired from BioIVT using the same protocol outlined above. All standards, QCs, samples and blanks were then loaded onto the UPLC-MS/MS for analysis.\nThe concentration of VBJ103/mass was based on brain weights. The volume of the homogenate was based on a 4:1 dilution of the brains. The volumes of homogenate was calculated based on brain weights in Table S13."}, "[6]": {"test": "Core body temperature by radiotelemetry after i.c.v. administration", "assay_type": "in vivo, mouse", "details": "306 nmol per 1 μL i.c.v.", "protocol": "A second set of male C57Bl6J mice (Jackson Laboratories, n = 8) was implanted with telemetry as described above and a 26-gauge brain cannula (Plastics One) targeted at the lateral ventricle using coordinates relative to Bregma: 0.3 mm caudal, 1.0 mm lateral, 3.0 mm ventral. This second procedure was also performed under isoflurane anesthesia. The brain cannula was secured to the skull with two screws and dental cement. Animals were treated with buprenex (0.05 mg·kg^−1, s.c. every 8 h for 48 h) and enrofloxacin (2 mg·kg^−1, s.c.), singly housed and handled daily as described above. A single i.c.v. injection was performed every other day in a randomized order and included: (1) Galanin-like peptide (3 nmol/1 μL), (2) VBJ103 (306 nmol/1 μL) and (3) VBJ103 vehicle (1 μL). Galanin-like peptide produced a decrease in body temperature in five of eight mice. Therefore, body temperature data in response to VBJ103 and vehicle are presented in these five mice. These studies were carried out with a single dose of VBJ103 (306 nmol/1 μL or ~4 mg·kg^−1), which was the highest dose achievable due to constraints of the injection volume and the solubility of VBJ103."}, "[7]": {"details": "Positive Allosteric Modulator format, read-out: Max Response, cAMP"}},
  "note": "Several values for one entry are separate records, joined by “and”; a condition that tells them apart may be missing. Identical values can stand only once. Like-named read-outs stand apart in the source and are kept apart here.",
  "data": [
    {"molecule": "O=C(NC1CCC2(CCCC2)CC1)c1ccc(-c2ccccc2)cc1", "note": "[VBJ103, N-(Spiro[4.5]decan-8-yl)-[1,1′-biphenyl]-4-carboxamide]", "values": [
      {"measurement": "Emax", "setting": "[1]; [7]", "result": 19.7, "unit": "%"},
      {"measurement": "EC50", "setting": "[1]; read-out: RC50 (EC50), cAMP", "result": "> 100000", "unit": "nM"},
      {"measurement": "activity at κ opioid receptor", "setting": "[1]; safety panel", "result": "no activity"},
      {"measurement": "Emax", "setting": "[2]; OPRM1, Positive Allosteric Modulator format, read-out: Max Response, cAMP", "result": 14.5, "unit": "%"},
      {"measurement": "EC50", "setting": "[2]; read-out: RC50 (EC50), cAMP", "result": "> 100000", "unit": "nM"},
      {"measurement": "activity at μ opioid receptor", "setting": "[2]; safety panel", "result": "no activity"},
      {"measurement": "Emax", "setting": "[3]; [7]", "result": 0, "unit": "%"},
      {"measurement": "EC50", "setting": "[3]; read-out: RC50 (EC50), cAMP", "result": "> 100000", "unit": "nM"},
      {"measurement": "activity at δ opioid receptor", "setting": "[3]; safety panel", "result": "no activity"},
      {"measurement": "IC50", "setting": "[4]; 10 concentrations, 0.005 to 100 μM", "result": "125 nM and ~125 nM"},
      {"measurement": "DAT maximal inhibition", "setting": "[4]; in relation to the control GBR 12909", "result": "~ 60%"},
      {"measurement": "concentration at 1 h", "setting": "[5]; female SD rats (animals 13-16), 100 mg/kg SC, 24 h, 100 mg/kg, read-out: brain levels, individual animals", "result": "14.6 nM and 11.9 nM and 7.1 nM and 8.1 nM"},
      {"measurement": "concentration at 1 h", "setting": "[5]; female SD rats (animals 26-28), 100 mg/kg SC, 1 h, 100 mg/kg, read-out: brain levels, individual animals", "result": "39 nM and 51 nM"},
      {"measurement": "concentration at 1 h", "setting": "[5]; female, Sprague-Dawley, rat, brain, sc, 100 mg/kg, female SD rats (animals 26-28), 100 mg/kg SC, 1 h, read-out: brain levels, individual animals", "result": 40, "unit": "nM"},
      {"measurement": "concentration at 1 h", "setting": "[5]; female, Sprague-Dawley, rat, brain, sc, 100 mg·kg^−1, female rats, 100 mg·kg−1 s.c., 1 h per Table S12, read-out: mean brain concentration", "result": "43 ± 4", "unit": "nM"},
      {"measurement": "concentration at 1 h", "setting": "[5]; male SD rats (animals 9-12), 100 mg/kg SC, 24 h, 100 mg/kg, read-out: brain levels, individual animals", "result": "6.9 nM and 7.9 nM and 3.9 nM and 4.9 nM"},
      {"measurement": "concentration at 1 h", "setting": "[5]; male SD rats (animals 23-25), 100 mg/kg SC, 1 h, 100 mg/kg, read-out: brain levels, individual animals", "result": "47 nM and 56 nM"},
      {"measurement": "concentration at 1 h", "setting": "[5]; male, Sprague-Dawley, rat, brain, sc, 100 mg/kg, male SD rats (animals 23-25), 100 mg/kg SC, 1 h, read-out: brain levels, individual animals", "result": 53, "unit": "nM"},
      {"measurement": "concentration at 1 h", "setting": "[5]; male, Sprague-Dawley, rat, brain, sc, 100 mg·kg^−1, male rats, 100 mg·kg−1 s.c., 1 h per Table S12, read-out: mean brain concentration", "result": "52 ± 2", "unit": "nM"},
      {"measurement": "change in CBT compared to vehicle", "setting": "[6]", "result": "did not significantly (P > 0.05) alter"}
    ]}
  ]
}
